For test [1], the system named is H-Ras in H-Ras-F cells. The test can be described thus: Subcellular fractionation / Western blot of Ras in lovastatin-treated H-Ras-F cells. Format: cell-based. To be noted: for Subcellular location of H-Ras (membrane vs cytosol): H-Ras-F cells, 25 μM lovastatin 24 h, then analog 24 h. Here is the method:
Following an additional 24 h incubation period, the cells were harvested, lysed and the membranes (M) separated from the cytosol (C). After solubilization of the membrane fraction, Ras protein was immunoprecipitated from both the membrane and cytosolic fractions by the addition of the Y13-259 antibody (OP04 from Oncogene Science). The presence of Ras protein in each fraction was analyzed by Western transfer techniques. Incubation with the primary antibody (pan-ras Ab-2 from Oncogene Science) and an anti-mouse HRP conjugate secondary antibody (Amersham) was employed for detection of the ras protein. Blots were developed using Enhanced Chemiluminescence techniques (Amersham). The technique is described in detail by Scholten, et al., Bioorg. Med. Chem., Vol. 4, pages 1537-1543 (1992).
The results are shown in FIGS. 6 and 7 which are Western blots of the H-Ras-F and H-Ras-GG experiments, respectively. H-Ras-F cells were treated with lovastatin in order to block the mevalonate pathway, prevent the formation of FPP and GGPP, and thus, inhibit protein prenylation.
Background: In western blotting, separated proteins are transferred to a membrane and probed.

Test [2] concerns the target recombinant mFTase (affinity purified rat FPTase) (Rattus norvegicus, UniProt Q02293+Q04631). Nature of the test: FTase scintillation proximity assay. Format: biochemical. To be noted: for pIC50: recombinant mFTase, tritiated FPP 0.12 μM, peptide 0.1 μM; for FTase/GGTase: selectivity mFTase against mGGTase I; for pKi: varying concentrations of tritiated FPP, read-out: K1 FTase. The protocol:
(§1) The method is described in detail in Yokama, et al., J. Biol. Chem., Vol. 272, No. 7, pages 3944-3952 (February 1997). The FTase, tritiated FPP, and the peptide were incubated at 37° C. for 30 minutes in a buffer. After incubation, a stop reagent and streptavidin beads (Amersham) were added. The radioactive product was counted on a Wallac Microbeta 1450 scintillation counter. The kinetic fits were derived from a nonlinear least squares computer fit of the data. The Ki values were determined using the same assay system with varying concentrations of tritiated FPP.

For test [3], the system named is H-Ras-F cells. Nature of the test: Cell morphology of lovastatin-treated H-Ras-F cells. The following applies: 25 μM lovastatin 24 h, then analog 24 h. The format is cell-based. The protocol: It has been well established that levels of lovastatin that completely block the mevalonate pathway result in cell cycle blockade, significant cytotoxicity, and a sharp change in cell appearance to a rounded morphology. The effects of lovastatin on the cell morphology of H-Ras-F and H-Ras-GG cells treated with FPP, GGPP, 3-vFPP, 3-vGGPP, 3-alFPP, and 3-alGGPP were photographed and the results are shown on FIG. 9 (H-Ras-F) and 8 (H-Ras-GG), respectively. The H-Ras-F and H-Ras-GG cells were grown in six-well plates to 70-80% confluence. After treating the cells with lovastatin (25 μM) for 24 hour, the indicated FPP or GGPP analogs (re-suspended in media) were added directly to the cell media. Photographs were taken after an additional 24 hour incubation period.

Test [4] deals with HPAC (human pancreatic adenocarcinoma cells). Nature of the test: Proliferation of HPAC cells, Trypan Blue exclusion. To be noted: 48 hours. The format is cell-based. The protocol: The malignant human cell line HPAC (human pancreatic adenocarcinoma cells) was used in this study. The cells were seeded at a concentration of 2×10^5/ml in 24 well culture plate (Costar, Cambridge, Mass). […] Varying amounts of the stock solutions were then used to treat the HPAC cells. The final concentration of the farnesol analogs in the culture plate wells ranged from 0 nM (ethanol-treated control) to 500 nM. The plate was then incubated at 37° C. under a 5% CO2-humidified atmosphere for 48 hours. The total viable cells from each well were determined by Trypan Blue (0.4%) exclusion (Gibco, N.Y.) followed by cell counting.

Test [5] relates to NIH 3T3 fibroblasts transfected with H-Ras(61 L) [H-Ras-F]. Nature of the test: Soft agar anchorage-independent growth, H-Ras-F cells. The format is cell-based. The following applies: for pIC50: soft agar, 2 weeks, read-out: Mean IC50 (±S.E.) H-Ras-F. Here is the method: (§2) Presumably, the non-polar alcohols pass through the cell membrane and are then diphosphorylated by an as yet uncharacterized kinase to FPP or GGPP.
(§3) The 3-substituted analogs were evaluated as inhibitors of the growth of ras-transformed cells by comparing their relative degree of activity against an isogenic panel of transformed cell lines, comprised of NIH 3T3 fibroblasts transfected with either H-Ras(61 L) [H-Ras-F], H-Ras(61 L)CVLL [H-Ras-GG], or a transforming form of c-raf [Raf]. The H-Ras-F, H-Ras-GG, and raf transformed NIH3T3 cell lines have been previously described in Cox, et al., Molecular and Cellular Biology, Vol. 12, No. 6, pages 2606-2615 (1992). The cells were grown prior to plating in Dulbecco's modified Eagle medium supplemented with 10% calf serum and 1% antibiotic/antimycotic at 37° C. and 10% CO2. Experiments were carried out in 6-well dishes in a two layer agar system (0.6% bottom layer and 0.3% top layer). Cells were incorporated into the top layer along with varying concentrations of the compound prepared in ethanol. Compound addition occurred only at the time the cells were seeded. Subsequent incubation was at 37° C. with 10% CO2 for 2 weeks. Colonies were stained with 0.5 ml/well of 1 mg/ml p-iodonitrotetrazolium violet (Sigma) for 24 hours prior to quantitation by image analysis.

Test [6] has as its system NIH 3T3 fibroblasts transfected with H-Ras(61 L)CVLL [H-Ras-GG]. The test can be described thus: Soft agar anchorage-independent growth, H-Ras-GG cells. The format is cell-based. To be noted: 2 weeks, read-out: Mean IC50 (±S.E.) H-Ras-GG. The protocol:
as §2, §3

Test [7] deals with recombinant mGGTase I (Homo sapiens, UniProt P49354+P53609). The test can be described thus: GGTase I scintillation proximity assay. To be noted: tritiated GGPP. Format: biochemical. The protocol:
as §1
GGTase I values were determined in a similar manner using recombinant mGGTase I, tritiated GGPP, and the peptide Biotin-Aha-Thr-Lys-Cys-Val-Ile-Leu-OH.
On the technique in general: SPA uses beads or plates that emit light when radiolabelled molecules are held near them.

Test [8] concerns the target T1, recombinant yeast FTase (yFTase) (Saccharomyces cerevisiae, UniProt P22007+P29703).
T1 sequence (P22007 1-431): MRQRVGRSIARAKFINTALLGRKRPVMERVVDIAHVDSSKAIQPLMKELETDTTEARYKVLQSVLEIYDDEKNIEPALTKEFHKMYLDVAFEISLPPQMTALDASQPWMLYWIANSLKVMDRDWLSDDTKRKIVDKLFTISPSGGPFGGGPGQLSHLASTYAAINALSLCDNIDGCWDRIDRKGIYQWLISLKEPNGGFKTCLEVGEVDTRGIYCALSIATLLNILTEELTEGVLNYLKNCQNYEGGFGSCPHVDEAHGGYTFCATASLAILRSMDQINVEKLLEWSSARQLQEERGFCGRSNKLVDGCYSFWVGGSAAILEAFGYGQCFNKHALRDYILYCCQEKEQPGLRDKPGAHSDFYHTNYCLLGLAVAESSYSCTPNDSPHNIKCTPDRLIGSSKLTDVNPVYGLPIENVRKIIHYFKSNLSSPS
T1 sequence (P29703 1-316): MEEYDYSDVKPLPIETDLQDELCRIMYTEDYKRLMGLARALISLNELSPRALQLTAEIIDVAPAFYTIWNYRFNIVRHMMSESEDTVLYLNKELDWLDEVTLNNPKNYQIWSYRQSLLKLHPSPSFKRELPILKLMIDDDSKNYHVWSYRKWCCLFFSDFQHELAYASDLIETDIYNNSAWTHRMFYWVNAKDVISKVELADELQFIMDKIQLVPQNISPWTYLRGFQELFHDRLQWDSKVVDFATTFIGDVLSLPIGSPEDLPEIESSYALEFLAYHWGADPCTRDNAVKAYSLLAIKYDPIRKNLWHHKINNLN
To be noted: cited from earlier work.

The source of these data is patent US6586461B1, “Prenyl transferase inhibitors” (Wayne State University, priority 1998, dated 2003).

pIC50, pKi: −log10 of the molar value. “Also recorded” adds a separate entry of the source.

Take `CC[C@H](C)C(=O)O[C@H]1C[C@@H](C)C=C2C=C[C@H](C)[C@H](CC[C@@H]3C[C@@H](O)CC(=O)O3)[C@H]21` [lovastatin, reference compound]: the “Subcellular location of H-Ras (membrane vs cytosol)” value in test [1] is recorded as “shift of the majority of H-Ras from the membrane fraction (M) to the cytosol (C)”.

A word on the pIC50: it is −log10 of the IC50, conventionally taken in molar units. As for `CC/C(=C\COP(=O)(O)OP(=O)(O)O)CC/C=C(\C)CCC=C(C)C` [Compound 3-etFPP], in test [2], the pIC50 was 6.67 and the FTase/GGTase is listed as over 460.

On to `C=CC/C(=C\COP(=O)(O)OP(=O)(O)O)CC/C=C(\C)CCC=C(C)C` [Compound 3-alFPP, 3-Allyl-7,11-dimethyldodeca-2(Z),6(E),10-triene 1-diphosphate], for which, in test [2], the “Mode of inhibition of mFTase versus FPP” value is reported as “competitive inhibitors”, the pIC50 is 6.72, the FTase/GGTase is recorded as over 530 and the pKi is 7.51. For the same compound, in test [1], the “Subcellular location of H-Ras (membrane vs cytosol)” value is “virtually all of the H-Ras being found in the cytosol”. The “Reversal of rounded morphology of lovastatin-treated H-Ras-F cells” value in test [3] is recorded as “not able to reverse the morphology”.

In the case of `CC(C)=CCC/C(C)=C/CC/C(C)=C/CC/C(C)=C/COP(=O)(O)OP(=O)(O)O` [GGPP, geranylgeranyl diphosphate, reference compound], the “Reversal of rounded morphology of lovastatin-treated H-Ras-F cells” value in test [3] is reported as “can be reversed”.

Consider “3-Allyl 7,11-dimethyldodeca-2(Z),6(E),10-trien-1-ol [3-ally Farnesol]”, for which the “Effect on HPAC cells at 100 nM” value in test [4] (100 nM) is given as “cytostasis”. Moreover, in test [4] (100 nM, seeded 2×10^5/ml, control well 2.2×10^6 cells), the “Viable HPAC cell count at 100 nM” value is ~2×10^5 /well. The “Effect on HPAC cells at 500 nM” value in test [4] (500 nM, listed as 3-allylfarnesol) is “potently cytotoxic; also recorded: complete cytotoxicity”.

For the compound `CC(C)=CCC/C(C)=C/CC/C(=C/CO)C(C)(C)C` [3-tert-butylfarnesol, 3-tert-Butyl-7,11-dimethyldodeca-2(Z),6(E),10-trien-1-ol], the “Cellular activity (transformed cell growth, soft agar), in words” value in test [5] (transformed NIH3T3 cell lines) was “inactive in cells”.

`CC(C)=CCCC(C)=CCCC(=CCO)c1ccccc1` [3-phenyl Farnesol]: the pIC50 in test [6] and in test [5] was under 4.60 each time.

With `CC(C)=CCC/C(C)=C/CC/C(=C/COP(=O)(O)OP(=O)(O)O)C(C)(C)C` [Compound 3-tbFPP, 3-tert-butyl-2(Z),6(E),10-triene diphosphate], in test [2], the “Mode of inhibition of mFTase versus FPP” value is “competitive inhibitors”, the negative logarithm of the IC50 (pIC50) was 7.51, the FTase/GGTase result is listed as “˜1600” and the pKi is 8.10. In addition, the negative-log IC50 (pIC50) in test [7] was about 4.30. In test [8], the “Inhibition of yFTase” value was “potent competitive inhibitor” and the “Substrate activity for yFTase” value is “exceptionally poor substrate”.

On to `CC(C)=CCC/C(C)=C/CC/C(C)=C/CC/C(C)=C/CO` [geranylgeraniol, reference compound], for which the “Reversal of rounded morphology of lovastatin-treated H-Ras-F cells” value in test [3] was “can be reversed”.

As for `CCC(=CCO)CCC=C(C)CCC=C(C)C` [3-ethyl Farnesol], the pIC50 in test [6] and in test [5] was under 4.60 in each case.

Turning to `CC(C)=CCC/C(C)=C/CC/C(=C/COP(=O)(O)OP(=O)(O)O)c1ccccc1` [Compound 3-phFPP], in test [2], the negative logarithm of the IC50 (pIC50) is 6.52 and the FTase/GGTase is reported as over 340.

`C=C/C(=C\COP(=O)(O)OP(=O)(O)O)CC/C=C(\C)CCC=C(C)C` [Compound 3-vFPP, 3-Vinyl-7,11-dimethyldodeca-2(Z),6(E),10-triene 1-Diphosphate]: in test [2], the “Mode of inhibition of mFTase versus FPP” value is recorded as “competitive inhibitors”, the pIC50 was 6.76, the FTase/GGTase entry is “˜600” and the pKi was 7.02. Besides, in test [1], the “Blocking of prenylation of Ras proteins in H-Ras-F cells” value is “neither 3-vinylfarnesol nor 3-vFPP blocked the prenylation of Ras proteins” and the “Subcellular location of H-Ras (membrane vs cytosol)” value is reported as “virtually complete localization of the H-Ras protein in the membrane fraction (M)”. Also, the “Reversal of rounded morphology of lovastatin-treated H-Ras-F cells” value in test [3] is “modest ability to do so”. The negative-log IC50 (pIC50) in test [7] is about 4.00. In addition, the “Substrate activity for yFTase” value in test [8] was “poor alternative substrate”.
